Marks after values point to notes of the source that are not given here.
Tests used:
myelofibrosis [1] = assay: SIMPLIFY-1 Phase 3 trial: splenic response rate (SRR); type: in vivo, human; conditions: for SRR Responders / SRR proportion (Wilson 95% CI) / SRR Absolute risk difference (Newcombe 95% CI): SIMPLIFY 1, 24 weeks; for SRR Absolute risk difference (Newcombe 95% CI): MMB vs Control
Description: In the SIMPLIFY-1 trial (NCT01969838), the efficacy and safety of MMB versus ruxolitinib (RUX) was studied in patients with myelofibrosis who were naïve to treatment with a JAK inhibitor and a platelet count of ≥50×10^9/L. Patients (N=432) with high risk or intermediate-2 risk or symptomatic intermediate-1 risk myelofibrosis received 24 weeks of treatment with 200 mg MMB once daily or 20 mg RUX twice a day (or per label), after which all patients could receive open-label momelotinib. […] The primary endpoint was a reduction by at least 35% in the spleen volume at 24 weeks compared with baseline.
(§1) FIG. 8A: SIMPLIFY-1 study of MMB in a first line population previously untreated with JAKi. For SIMPLIFY-1, the goal was non-inferiority over ruxolitinib (RUX) (MMB: N=215 subjects, and RUX: N=217 subjects). FIG. 8B: SIMPLIFY-2 study of second line population of anemic or thrombocytopenic subjects previously treated with RUX (red blood cell (RBC) transfusions on RUX=64%. RUX dose adjustment for: thrombocytopenia=21%; anemia/hematoma=35%). For SIMPLIFY-2, the goal was superiority over best available treatment (BAT) (MMB: N=104 subjects, and BAT: N=52 subjects). In both SIMPLIFY-1 and SIMPLIFY: Primary endpoint: >=35% reduction in spleen volume at 24 weeks. Secondary endpoints: Total symptom score (TSS) response at 24 weeks. Effects on RBC transfusion requirements.
The SIMPLIFY 1 clinical trial data was reanalyzed for subgroups of subjects having particular baseline platelet counts in the MMB versus RUX arms of the study.
Patient data was analyzed according to the following baseline platelet count (PLT) subgroups and in particular according to the threshold PLT of 150×10^9/L: 1) PLT<50×10^9/L; 2) 50×10^9/L≤PLT<100×10^9/L; 3) 100×10^9/L≤PLT<150×10^9/L. The reanalyzed data is presented in Table 13 (SIMPLIFY 1). Selected data is also illustrated in the following figures.

myelofibrosis [2] = assay: SIMPLIFY-2 Phase 3 trial: transfusion independence and TD to TI conversion; type: in vivo, human; conditions: for TD to 12w rolling TI Absolute risk difference (Newcombe 95% CI) / TD to W24 TI Absolute risk difference (Newcombe 95% CI) / TI rate Absolute risk difference (Newcombe 95% CI): MMB vs Control
Source text: The improved outcome from MMB therapy that results from practicing the subject methods can be manifested as an improvement in one or more clinical endpoints (e.g., as described herein), such as anemia response, in spleen response and/or symptom response. By “anemia response” is meant an increase in the patient's hemoglobin level or a patient who was transfusion dependent becoming transfusion independent. Desirably, a minimum increase in hemoglobin of 0.5 g/dL, such as 1.0 g/dL 1.5 g/dL or 2.0 g/dL lasting a minimum of 8 weeks is achieved, which is the level of improvement specified in the International Working Group (IWG) consensus criteria. However, smaller, but still medically significant, increases in hemoglobin are also considered to be within the term “anemia response”. “Transfusion independence” is an anemia endpoint and refers to a subject who required no RBC transfusions over a 12 week period and had no hemoglobin levels less than 8 g/dL to 8.5 g/dL over the 12 week period. In some embodiments, the 12 week period of transfusion independence is the terminal 12 weeks of a 24 week study period. By red blood cell (RBC) transfusion independence rate at week 24 of a study is meant the proportion of subjects who were transfusion independent at week 24, excluding cases associated with clinically overt bleeding.
In the SIMPLIFY-2 trial (NCT02101268), the efficacy and safety of MMB was studied in anemic or thrombocytopenic subjects with myelofibrosis who were previously treated with ruxolitinib (RUX). […] Specifically, anemic or thrombocytopenic myelofibrosis patients who had and were previously treated with (RUX) (for at least 28 days) were studied over 24 weeks for response to MMB versus best available treatment (BAT), primarily RUX (89% of patients) but alternatively no treatment or other standard interventions, after which period all patients could receive extended MMB treatment. Previously treated RUX patients who either required red blood cell transfusions or RUX dose reduction with grade 3 thrombocytopenia, anemia, and/or bleeding at grade 3 or worse, with palpable spleen of at least 5 cm and without grade 2 or greater peripheral neuropathy were included in the trial. There was no lower limit for the required baseline platelet count. The primary endpoint was a reduction by at least 35% in the spleen volume at 24 weeks compared with baseline.
as §1
The SIMPLIFY 2 clinical trial data was reanalyzed for subgroups of subjects having particular baseline platelet counts in the MMB versus BAT arms of the study.
Patient data was analyzed according to the following baseline platelet count (PLT) subgroups and in particular according to a threshold PLT of 150×10^9/L: 1) PLT<50×10^9/L; 2) 50×10^9/L≤PLT<100×10^9/L; 3) 100×10^9/L≤PLT<150×10^9/L. The reanalyzed data is presented in Table 14 (SIMPLIFY 2).

[3] = SIMPLIFY 2, 50 ≤ PLT < 100 ×10^9/L
[4] = SIMPLIFY 2, 100 ≤ PLT < 150 ×10^9/L
[5] = SIMPLIFY-2, switch from Transfusion Dependent to Independent

Cl.N#CCNC(=O)c1ccc(-c2ccnc(Nc3ccc(N4CCOCC4)cc3)n2)cc1 [MMB, N-(cyanomethyl)-4-(2-(4-morpholinophenylamino)pyrimidin-4-yl)benzamide]
SRR Responders (myelofibrosis [1]; 50 ≤ PLT < 100 ×10^9/L): 7 | SRR proportion (Wilson 95% CI) (myelofibrosis [1]; 50 ≤ PLT < 100 ×10^9/L): 0.39 | SRR Absolute risk difference (Newcombe 95% CI) (myelofibrosis [1]; 50 ≤ PLT < 100 ×10^9/L): 0.39 | SRR Responders (myelofibrosis [1]; 100 ≤ PLT < 150 ×10^9/L): 4 | SRR proportion (Wilson 95% CI) (myelofibrosis [1]; 100 ≤ PLT < 150 ×10^9/L): 0.14 | SRR Absolute risk difference (Newcombe 95% CI) (myelofibrosis [1]; 100 ≤ PLT < 150 ×10^9/L): 0.08 | SRR Responders (myelofibrosis [1]; ITT): 57 | SRR proportion (Wilson 95% CI) (myelofibrosis [1]; ITT): 0.27 | SRR Absolute risk difference (Newcombe 95% CI) (myelofibrosis [1]; ITT): −0.03 | subjects who did not achieve a spleen response on ruxolitinib but did so after 24 weeks of additional momelotinib treatment (myelofibrosis [1]; SIMPLIFY 1, crossover arm): 16.5% | spleen response (SRR) at any time in the open label phase (myelofibrosis [1]; SIMPLIFY 1, momelotinib arm): 46.2% | SRR (myelofibrosis [1]; SIMPLIFY 1, overall): 26.5% | SRR (myelofibrosis [1]; SIMPLIFY 1, week 24, ITT, all patients): 27% | SRR (myelofibrosis [1]; SIMPLIFY 1, week 24, ITT, platelets 50-100 (subgroup 2)): 39% | SRR (myelofibrosis [1]; SIMPLIFY 1, week 24, ITT, platelets 100-150 (subgroup 3)): 14% ‡ | SRR (myelofibrosis [1]; SIMPLIFY 1, week 24, baseline TSS ≥ 6, all patients): 25% | SRR (myelofibrosis [1]; SIMPLIFY 1, week 24, baseline TSS ≥ 6, platelets 50-100 (subgroup 2)): 43% | SRR (myelofibrosis [1]; SIMPLIFY 1, week 24, baseline TSS ≥ 6, platelets 100-150 (subgroup 3)): 14% ‡ | SRR (myelofibrosis [1]; SIMPLIFY 1, week 24, baseline TSS ≥ 10, all patients): 24% | SRR (myelofibrosis [1]; SIMPLIFY 1, week 24, baseline TSS ≥ 10, platelets 50-100 (subgroup 2)): 42% | SRR (myelofibrosis [1]; SIMPLIFY 1, week 24, baseline TSS ≥ 10, platelets 100-150 (subgroup 3)): 13% ‡ | spleen response compared with RUX (myelofibrosis [1]; SIMPLIFY 1, p=0.011): statistically non-inferior to RUX | patients TI at week 24 (myelofibrosis [2]; SIMPLIFY 2): 43% | transfusion dependent (TD) patients at baseline who were TI at week 24 (myelofibrosis [2]; SIMPLIFY 2): 32.8% | TD to 12w rolling TI Responders (myelofibrosis [2]; [3]): 7 | TD to 12w rolling TI proportion (Wilson 95% CI) (myelofibrosis [2]; [3]): 0.54 | TD to W24 TI Responders (myelofibrosis [2]; [3]): 6 | TD to W24 TI proportion (Wilson 95% CI) (myelofibrosis [2]; [3]): 0.46 | TI rate Responders (myelofibrosis [2]; [3]): 18 | TI rate proportion (Wilson 95% CI) (myelofibrosis [2]; [3]): 0.55 | TD to 12w rolling TI Absolute risk difference (Newcombe 95% CI) (myelofibrosis [2]; [3]): 0.27 | TD to W24 TI Absolute risk difference (Newcombe 95% CI) (myelofibrosis [2]; [3]): 0.37 | TI rate Absolute risk difference (Newcombe 95% CI) (myelofibrosis [2]; [3]): 0.15 | TD to 12w rolling TI Responders (myelofibrosis [2]; [4]): 3 | TD to 12w rolling TI proportion (Wilson 95% CI) (myelofibrosis [2]; [4]): 0.23 | TD to W24 TI Responders (myelofibrosis [2]; [4]): 4 | TD to W24 TI proportion (Wilson 95% CI) (myelofibrosis [2]; [4]): 0.31 | TI rate Responders (myelofibrosis [2]; [4]): 10 | TI rate proportion (Wilson 95% CI) (myelofibrosis [2]; [4]): 0.42 | TD to 12w rolling TI Absolute risk difference (Newcombe 95% CI) (myelofibrosis [2]; [4]): 0.03 | TD to W24 TI Absolute risk difference (Newcombe 95% CI) (myelofibrosis [2]; [4]): 0.31 | TI rate Absolute risk difference (Newcombe 95% CI) (myelofibrosis [2]; [4]): 0.42 | TD to 12w rolling TI Responders (myelofibrosis [2]; SIMPLIFY 2, ITT): 24 | TD to 12w rolling TI proportion (Wilson 95% CI) (myelofibrosis [2]; SIMPLIFY 2, ITT): 0.41 | TD to W24 TI Responders (myelofibrosis [2]; SIMPLIFY 2, ITT): 19 | TD to W24 TI proportion (Wilson 95% CI) (myelofibrosis [2]; SIMPLIFY 2, ITT): 0.33 | TI rate Responders (myelofibrosis [2]; SIMPLIFY 2, ITT): 45 | TI rate proportion (Wilson 95% CI) (myelofibrosis [2]; SIMPLIFY 2, ITT): 0.43 | TD to 12w rolling TI Absolute risk difference (Newcombe 95% CI) (myelofibrosis [2]; SIMPLIFY 2, ITT): 0.23 | TD to W24 TI Absolute risk difference (Newcombe 95% CI) (myelofibrosis [2]; SIMPLIFY 2, ITT): 0.29 | TI rate Absolute risk difference (Newcombe 95% CI) (myelofibrosis [2]; SIMPLIFY 2, ITT): 0.22 | TD to 12w rolling TI Responders (myelofibrosis [2]; SIMPLIFY 2, PLT < 50 ×10^9/L): 3 | TD to 12w rolling TI proportion (Wilson 95% CI) (myelofibrosis [2]; SIMPLIFY 2, PLT < 50 ×10^9/L): 0.50 | TD to W24 TI Responders (myelofibrosis [2]; SIMPLIFY 2, PLT < 50 ×10^9/L): 2 | TD to W24 TI proportion (Wilson 95% CI) (myelofibrosis [2]; SIMPLIFY 2, PLT < 50 ×10^9/L): 0.33 | TI rate Responders (myelofibrosis [2]; SIMPLIFY 2, PLT < 50 ×10^9/L): 2 | TI rate proportion (Wilson 95% CI) (myelofibrosis [2]; SIMPLIFY 2, PLT < 50 ×10^9/L): 0.22 | TD to 12w rolling TI Absolute risk difference (Newcombe 95% CI) (myelofibrosis [2]; SIMPLIFY 2, PLT < 50 ×10^9/L): 0.50 | TD to W24 TI Absolute risk difference (Newcombe 95% CI) (myelofibrosis [2]; SIMPLIFY 2, PLT < 50 ×10^9/L): 0.33 | TI rate Absolute risk difference (Newcombe 95% CI) (myelofibrosis [2]; SIMPLIFY 2, PLT < 50 ×10^9/L): 0.22 | transfusion dependence to independence conversion rate at week 24 (myelofibrosis [2]; SIMPLIFY 2, baseline platelet count subgroup 3 (100 to 150×10^9/L)): 46% | ≥8 week transfusion independence rate (myelofibrosis [2]; [5]): 46.6% | ≥12 week transfusion independence rate (myelofibrosis [2]; [5]): 46.6%

Source: patent US11963962B2, “Platelet count-agnostic methods of treating myelofibrosis” (Sierra Oncology, Inc., priority 2018, dated 2024)
